Entries after “also recorded” stand apart in the source; their conditions may differ. Peptide text beside a SMILES is read from it. * marks the point of attachment. Cbz = O=C(OCc1ccccc1)*; CH2F = FC*
Tests used:
mitochondria [1] = test: Cytochrome c release from isolated liver mitochondria (immunoblot densitometry or ELISA); format: biochemical, Balb/cJ mice
Method: Mitochondria were isolated from liver of Balb/cJ mice by standard differential centrifugation, and resuspended in isolation buffer (IB) (0.2 M sucrose, 10 mM Tris-MOPS pH 7.4, 0.1 mM EGTA-Tris, 0.1% delipidated BSA).
At the indicated time, mitochondria were pelleted by centrifugation at 12000×g at 4° C. for 3 min, and resuspended in the same volume of EB. Cytochrome c release was determined either by densitometry (Stratagene Eagle Eye II, BioRad) of immunoblots, or by rat/mouse specific ELISA performed on mitochondrial pellet and supernatant diluted 1:20 in PBS containing 0.5% Triton X-100 (R&D systems, MN). Cytochrome c is reported as the percentage of the supernatant over the total (pellet plus supernatant).
For SDS-PAGE, 20 μg of mitochondrial protein was loaded in each lane of a 12% NuPAGE (NoVex, CA) gel. After separation, proteins were transferred onto PVDF membranes (Immobilon-P, Millipore, Calif.) and membranes were probed as indicated with the following primary antibodies: anti-cytochrome c (Pharmingen, CA, 1:1000); anti-BID (1:1500); anti-BAK (Calbiochem, CA, 1:1000). HRPO-conjugated secondary antibodies (CalTag, CA, 1:2000) were visualized by chemiluminescence (Amersham, N.J.).
Mitochondria were incubated with increasing amounts of digitonin to assess how much cytochrome c was released from IMS by the selective solubilization of the OM (Hoppel and Cooper, 107, 367-375, 1968). To monitor interaction of digitonin with the […], uncoupled respiration in the presence of excess exogenous cytochrome c was assessed. Specifically 0.5 mg/ml mitochondria was incubated in EB with the indicated concentration of digitonin. After 5 minutes, mitochondria were centrifuged and cytochrome c content in the resulting pellet and supernatant were determined as described. Uncoupled JO2, uncoupled respiratory rate was recorded in parallel experiments. After 5 minutes of incubation with the indicated concentration of digitonin, mitochondria were treated with 400 pmol CCCP×mg protein-1 in the presence of 10 nmol cytochrome c×mg protein.

wt mitochondria [2] = test: Cytochrome b5-dependent NADH oxidation assay; format: biochemical, Balb/cJ mice
Method: (d), mitochondria were preincubated for 2 min with 800 pmol CsA×mg protein^−1. (a), no additions. After 15 min, respiratory chain inhibitors were added and after another 2 minutes NADH fluorescence reading started. Arrow, 20 nmol NADH×mg protein^−1. In (e), 200 nmol mersalyl×mg protein was added 1 min before NADH.
In the cytochrome b5-dependent NADH oxidation assay, 1 mg/ml mitochondria were incubated in EB and treated as indicated. 400 pmol CCCP, 2 nmol rotenone and 1 nmol antimycin A×mg protein^−1 were added after the time indicated and the reaction transferred to a cuvette. After 2 min, 10 μM NADH was added and its oxidation monitored as the decrease in NADH fluorescence in a LS50B spectrofluorimeter (Perkin Elmer) set with λex=366 nm and λem=455 nm, with 5 nm slits.

[3] = system: calcein loaded mitochondria; test: Release of matrix-entrapped calcein (transient PTP opening); format: biochemical, Balb/cJ mice; conditions: preincubated 3 min with 200 nmol/mg suramin; 320 pmol/mg tBID, 30 min
Method: To assess calcein release, mitochondria suspended in IB without BSA were loaded with 10 nmol×mg protein^−1 calcein-AM (Molecular Probes, Eugene, Oreg.) for 20 mins at room temperature in the dark. Following two washes in IB, the calcein loaded mitochondria were resuspended in IB at a final concentration of 10 mg/ml. 0.5 mg/ml calcein loaded mitochondria were incubated in EB and treated as described. After the indicated time, mitochondria were pelleted. Calcein was measured in an LS-50B spectrofluorimeter (Perkin Elmer) with excitation and emission wavelengths set at 488±2.5 nm and 542±2.5 nm, respectively.
After 30 min mitochondria were spun at 14000 g for 3 min at 4 C and the calcein content in the pellet and in the supernatant was determined. […] To determine if a BID α6 mutation variant, BID α6 mutein (SEQ ID NO:7), would inhibit cytochrome c release, His-tag p22 wt BID and the BID α6 mutein were expressed, purified on a Ni^2+ column, and cleaved with caspase 8.
Mitochondria were loaded with calcein and treated with 10 μM BID α6 14mer. Where noted, mitochondria were pretreated with 1 μM CsA. At the indicated time, mitochondria were pelleted by centrifugation and calcein in the pellet and in the supernatant was determined.

mitochondria [4] = test: Adenylate kinase (AK) release from mitochondria; format: biochemical, Balb/cJ mice; conditions: preincubation: 800 pmol CsA × mg protein^−1 or 0.1 μg × mg protein^−1 anti-BAK Ab
Method: AK release was determined similar to that described for cytochrome c release. AK was quantified measuring its enzymatic activity by assessing the rate of NADH oxidation at 366 nm using a Beckman DU-10 spectrophotometer. 10 μl of the supernatant or pellet were added to a reaction mixture containing 0.5 mM phosphoenolpyruvate, ATP, AMP, 1 mM NADH, and 60 units of pyruvate kinase and lactate dehydrogenase, in 130 mM KCl, 6 mM MgSO4 and 100 mM Tris-Cl. Final volume 0.1 ml, pH 7.4, 25° C. AK release is reported (as described for cytochrome c) as the percentage of the supernatant over the total (pellet plus supernatant).

Wt and DKO MEFs = test: TEM morphology of mitochondria in cells after death stimuli; format: cell-based; conditions: 12 hrs after treatment; 2 μM thapsigargin, 2 μg/ml brefeldin A, 1 μg/ml tunicamycin
Method: For apoptosis induction, MEFs were plated in 24-well plates at a density of 10^4 cells/well and grown for 24 hrs (Wei et al, 2001). Apoptosis was initiated by 2 μM thapsigargin, 2 μg/ml brefeldin A, 1 μg/ml tunicamycin or by 5 hrs of heat shock (43° C. in a humidified atmosphere of 95% air 5% CO2). Apoptosis was detected by flow cytometric detection of annexin V staining (BD Pharmingen) 24 hrs after the induction of cell death.
Wt and DKO MEFs were treated where indicated with brefeldin A or heat shock. After 12 hrs cells were fixed and imaged. Bar, 200 nm. The insets show 2× magnification of the boxed mitochondria. […] Wt and DKO MEFs were treated with the indicated death stimulus and after 12 hrs cells were fixed, stained and TEMs collected. Morphometric analysis was conducted.

mitochondria [5] = test: Mitochondrial swelling by side scatter at 545 nm; format: biochemical, Balb/cJ mice; conditions: 400 μM Ca^2+, positive control
Method: tBID was evaluated to determine if it causes any swelling or depolarization that might reflect an opening of the PTP. Swelling of 0.5 mg/ml mitochondria incubated in EB was monitored by changes in side scatter at 545±2.5 nm using LS-50B spectrofluorimeter equipped with magnetic stirring at 25° C. Membrane potential changes of 0.5 mg/ml mitochondria incubated in experimental buffer were monitored from the dequenching of a 0.3 μM Rhodamine 123 (Molecular Probes, OR) solution in a LS-50B spectrofluorimeter at 25° C., using excitation and emission wavelengths set at 503±2.5 nm and 525±5 nm, respectively.
To determine if the BID α6 14mer (SEQ ID NO:1) induced mitochondrial swelling or release of cytochrome c across the mitochondrial outer membrane, mitochondria at 1 mg/ml were incubated in experimental buffer and, where indicated, 20 μM Ca^2+ and 10 μM 14mer were added. Where noted, mitochondria were preincubated with CsA. […] Mitochondria were incubated with 10 μM 14mer in the presence or in the absence of 1 μM CsA. At the indicated time in minutes, mitochondria were pelleted by centrifugation and cytochrome c in the pellet and in the supernatant was determined.

wt mitochondria [6] = test: Ascorbate/TMPD-driven respiration assay; format: biochemical, Balb/cJ mice; conditions: 200 nmol Ca^2+ × mg protein^−1
Method: Symbols used are detailed in the legend. […] (a), no additions. […] Arrow, 6 mM ascorbate-Tris and 300 μM TMPD were added. Assays were developed to assess the amount of cytochrome c freely available in the IMS (FIGS. 3A, B). […] After the indicated time, 400 pmol CCCP and 1 nmol antimycin A×mg protein^−1 were added, and the reaction transferred to a Clark type oxygen electrode chamber. Final volume was 1 ml, 25° C. After 2 min, 6 mM ascorbate was added, followed after a further 3 min by 300 μM TMPD. The ascorbate-driven O2 consumption rate over the total TMPD-driven rate is plotted as a percentage of the ratio in the untreated mitochondria.

NH2-XMLXXXXLLAAAVA-COOH [BID α6 mutein, BID α6 mutation variant where two lysine residues were changed to alanine residues; p7/p15 caspase cleaved]
cytochrome c released from mitochondria (mitochondria [1]; 1.6 pmol p7/p15 caspase cleaved BID × mg protein^−1): ~20% | cytochrome c release from mitochondria (mitochondria [1]; 1.6 pmol p7/p15 caspase cleaved BID × mg protein^−1, compared with wt p7/p15 BID): impaired release of cytochrome c; also recorded: does not completely release cytochrome c | cytochrome c mobilization (cytochrome b5-dependent NADH oxidation) (wt mitochondria [2]; BID α6 mutein compared to wt): cytochrome c had not been mobilized; also recorded: fails to mobilize cytochrome c

Cc1ccc(C(=O)Nc2ccc(S(=O)(=O)O)c3cc(S(=O)(=O)O)cc(S(=O)(=O)O)c23)cc1NC(=O)c1cccc(NC(=O)Nc2cccc(C(=O)Nc3cc(C(=O)Nc4ccc(S(=O)(=O)O)c5cc(S(=O)(=O)O)cc(S(=O)(=O)O)c45)ccc3C)c2)c1 [suramin]
effect on tBID-induced calcein release (transient permeability transition) [3]: blocked tBID-induced transient permeability transition; also recorded: specifically inhibits calcein release induced by tBID

COC(=O)C[C@H](NC(=O)[C@H](C)NC(=O)[C@@H](NC(=O)OCc1ccccc1)C(C)C)C(=O)CF [zVAD-fmk] (Cbz-Val-Ala-Asp(OMe)-CH2F)
effect on tBID induced cytochrome c release (mitochondria [1]; preincubation: 800 pmol CsA × mg protein^−1 or 0.1 μg × mg protein^−1 anti-BAK Ab): Neither anti-BCL-XL antibody nor the broad specificity caspase inhibitor zVAD-fmk had any effect | effect on tBID induced AK release (mitochondria [4]): Neither anti-BCL-XL antibody nor the broad specificity caspase inhibitor zVAD-fmk had any effect

C[C@H]1CCC/C=C/[C@@H]2C[C@H](O)C[C@H]2[C@H](O)/C=C/C(=O)O1 [brefeldin A]
mitochondrial morphology in cells (Wt and DKO MEFs): frequent mitochondria with Class II morphology

tunicamycin
mitochondrial morphology in cells (Wt and DKO MEFs): frequent mitochondria with Class II morphology

C/C=C(/C)C(=O)O[C@H]1C(C)=C2[C@H]([C@@H]1OC(=O)CCCCCCC)[C@@](C)(OC(C)=O)C[C@H](OC(=O)CCC)[C@@]1(O)[C@H]2OC(=O)[C@@]1(C)O [thapsigargin]
mitochondrial morphology in cells (Wt and DKO MEFs): frequent mitochondria with Class II morphology

[Ca+2] [Ca^2+]
mitochondrial swelling (mitochondria [5]): maximal swelling | cytochrome b5-dependent NADH oxidation rate (wt mitochondria [2]; 200 nmol Ca^2+ × mg protein^−1): increased the rate of NADH oxidation | ascorbate-driven respiration (wt mitochondria [6]): increases the ascorbate-driven respiration

COC(CNC(=O)c1ccccc1OCC(=O)O)[CH2][Hg][OH] (centres unmarked) [mersalyl]
effect on increases in NADH oxidation (wt mitochondria [2]; 200 nmol mersalyl × mg protein added 1 min before NADH): totally inhibited

B1: myristoylated p7/p15 BID complex: Wt p22 BID cleaved with recombinant caspase 8 into the active p7/p15 BID complex (protein)
p7: MDSEVSNGSGLGAKHITDLLVFGFLQSSGCTRQELEVLGRELPVQAYWEADLEDELQTD
p15: GSQASRSFNQGRIEPDSESQEEIIHNIARHLAQIGDEMDHNIQPTLVRQLAAQFMNGSLSEEDKRNCLAKALDEVKTAFPRDMENDKAMLIMTMLLAKKVASHAPSLLRDVFHTTVNFINQNLFSYVRNLVRNEMD
modifications: left off: small tags and cut ends
cytochrome c release from mitochondria (mitochondria [1]; 0.32 pmol × mg protein^−1): Complete cytochrome c release
